# Results from US20130252816A1, “HERBICIDAL COMPOSITION AND USE THEREOF” (Syngenta Crop Protection LLC, priority 2010, published 2013).
# Tests used:
# [1] = test system: treated plants; conditions: after treatment, glyphosate per se; cited from earlier work
# [2] = test system: Poa annua; test: Example 1: adjuvants alone, visual % damage, pots in glasshouse; assay type: in vivo
# Procedure: (§1) The effect of different adjuvants (see Table 1 below) on the growth of broadleaf weed and grass species was investigated and compared to untreated (water only) control weeds.
# (§2) Plates, each with 48 pots measuring 2.7 cm diameter and 5 cm deep, were filled with TKS1 growing media (Floragard, Germany). Seeds of Taraxacum officinale, Stellaria media or Poa annua were sown on the surface (10 to 20 per pot). Plants were grown in glasshouse at a temperature of 18 to 20° C. and at 60% relative humidity.
# (§3) Plants were treated 15 (Stellaria, Poa) and 34 (Taraxacum) days after sowing with 60 μl of a 1.25, 2.5, 5 and 10% (w/v) solution of adjuvant using a hand airbrush.
# (§4) Visual assessment of the percentage damage to the plant was carried out 1 day and 6 days from application.
# (§5) Damage was assessed as wilting, desiccation or any other kind of visual injury in comparison to the untreated control (water only).
# [3] = test system: Stellaria media; test: as above; assay type: in vivo
# Procedure: as §1, §2, §3, §4, §5
# [4] = test system: Taraxacum officinale; test: as above; assay type: in vivo
# Procedure: as §1, §2, §3, §4, §5
# [5] = test system: Veronica persica; test: Example 2: alcohol ethoxylate adjuvants without glyphosate, visual % damage, tracksprayer 300 l/ha; assay type: in vivo
# From the text: (§6) The effect of different types of alcohol ethoxylate (branched—Genapol X-series, and unbranched—Genapol O-series, differing degrees of ethoxylation, see Table 3 below for more details), on unwanted vegetation (broadleaf weed and grass species), in the absence of glyphosate, was investigated and compared to untreated (water only) control weeds.
# (§7) Troughs (measuring 16 cm by 13 cm by 5 cm) were filled with local field soil. Seeds of Veronica persica, Stellaria media, Trifolium repens and Poa annua were sown 24 days before application of test samples. Plants were grown in the glasshouse at 18 to 20° C. and 60% relative humidity. Application of alcohol ethoxylate test samples was carried out using a tracksprayer, spraying at a rate of 300 l/ha. Plants were kept in glasshouse and visual assessment of the estimated percentage damage to the plant was carried out 1, 7, and 14 days from application.
# as §5
# [6] = test system: Poa annua; test: as above; assay type: in vivo
# From the text: as §6, §7, §5
# [7] = test system: Stellaria media; test: as above; assay type: in vivo
# From the text: as §6, §7, §5
# [8] = test system: Trifolium repens; test: as above; assay type: in vivo
# From the text: as §6, §7, §5
# [9] = test system: broadleaf weeds and grasses; test: Example 1: overall statement on adjuvants alone; assay type: in vivo; conditions: 1 and 6 days after treatment, adjuvant alone
# Procedure: as §1, §2, §3, §4, §5
compound,measurement,setting,value
"O=C(O)CNCP(=O)(O)O [glyphosate, N-(phosphonomethyl)glycine]",time until visual symptoms of phytotoxicity appear,[1],7 to 10 days
Oleyl alcohol polyglycol ether with 5 moles of ethoxylation [GenapolO050],avg % damage 1 DAA Poa annua,[2]; adjuvant 1.25% w/v,0%
same,avg % damage 6 DAA Poa annua,[2]; adjuvant 1.25% w/v,5%
same,avg % damage 1 DAA Poa annua,[2]; adjuvant 2.5% w/v,0%
same,avg % damage 6 DAA Poa annua,[2]; adjuvant 2.5% w/v,5%
same,avg % damage 1 DAA Poa annua,[2]; adjuvant 5% w/v,0%
same,avg % damage 6 DAA Poa annua,[2]; adjuvant 5% w/v,10%
same,avg % damage 1 DAA Poa annua,[2]; adjuvant 10% w/v,0%
same,avg % damage 6 DAA Poa annua,[2]; adjuvant 10% w/v,10%
same,avg % damage 1 DAA Stellaria media,[3]; adjuvant 1.25% w/v,0%
same,avg % damage 6 DAA Stellaria media,[3]; adjuvant 1.25% w/v,0%
same,avg % damage 1 DAA Stellaria media,[3]; adjuvant 2.5% w/v,10%
same,avg % damage 6 DAA Stellaria media,[3]; adjuvant 2.5% w/v,15%
same,avg % damage 1 DAA Stellaria media,[3]; adjuvant 5% w/v,15%
same,avg % damage 6 DAA Stellaria media,[3]; adjuvant 5% w/v,25%
same,avg % damage 1 DAA Stellaria media,[3]; adjuvant 10% w/v,30%
same,avg % damage 6 DAA Stellaria media,[3]; adjuvant 10% w/v,25%
same,avg % damage 1 DAA Taraxacum officinale,[4]; adjuvant 1.25% w/v,10%
same,avg % damage 6 DAA Taraxacum officinale,[4]; adjuvant 1.25% w/v,0%
same,avg % damage 1 DAA Taraxacum officinale,[4]; adjuvant 2.5% w/v,10%
same,avg % damage 6 DAA Taraxacum officinale,[4]; adjuvant 2.5% w/v,3%
same,avg % damage 1 DAA Taraxacum officinale,[4]; adjuvant 5% w/v,10%
same,avg % damage 6 DAA Taraxacum officinale,[4]; adjuvant 5% w/v,20%
same,avg % damage 1 DAA Taraxacum officinale,[4]; adjuvant 10% w/v,10%
same,avg % damage 6 DAA Taraxacum officinale,[4]; adjuvant 10% w/v,0%
same,mean % damage 1 daa Veronica persica,[5]; adjuvant 1% w/v,0%
same,mean % damage 7 daa Veronica persica,[5]; adjuvant 1% w/v,5%
same,mean % damage 14 daa Veronica persica,[5]; adjuvant 1% w/v,5%
same,mean % damage 1 daa Veronica persica,[5]; adjuvant 1.5% w/v,0%
same,mean % damage 7 daa Veronica persica,[5]; adjuvant 1.5% w/v,10%
same,mean % damage 14 daa Veronica persica,[5]; adjuvant 1.5% w/v,20%
same,mean % damage 1 daa Veronica persica,[5]; adjuvant 2% w/v,0%
same,mean % damage 7 daa Veronica persica,[5]; adjuvant 2% w/v,10%
same,mean % damage 14 daa Veronica persica,[5]; adjuvant 2% w/v,20%
same,mean % damage 1 daa Veronica persica,[5]; adjuvant 2.5% w/v,0%
same,mean % damage 7 daa Veronica persica,[5]; adjuvant 2.5% w/v,20%
same,mean % damage 14 daa Veronica persica,[5]; adjuvant 2.5% w/v,20%
same,mean % damage 1 daa Poa annua,[6]; adjuvant 1% w/v,0%
same,mean % damage 7 daa Poa annua,[6]; adjuvant 1% w/v,10%
same,mean % damage 14 daa Poa annua,[6]; adjuvant 1% w/v,0%
same,mean % damage 1 daa Poa annua,[6]; adjuvant 1.5% w/v,0%
same,mean % damage 7 daa Poa annua,[6]; adjuvant 1.5% w/v,5%
same,mean % damage 14 daa Poa annua,[6]; adjuvant 1.5% w/v,0%
same,mean % damage 1 daa Poa annua,[6]; adjuvant 2% w/v,0%
same,mean % damage 7 daa Poa annua,[6]; adjuvant 2% w/v,5%
same,mean % damage 14 daa Poa annua,[6]; adjuvant 2% w/v,5%
same,mean % damage 1 daa Poa annua,[6]; adjuvant 2.5% w/v,0%
same,mean % damage 7 daa Poa annua,[6]; adjuvant 2.5% w/v,5%
same,mean % damage 14 daa Poa annua,[6]; adjuvant 2.5% w/v,5%
same,mean % damage 1 daa Stellaria media,[7]; adjuvant 1% w/v,0%
same,mean % damage 7 daa Stellaria media,[7]; adjuvant 1% w/v,5%
same,mean % damage 14 daa Stellaria media,[7]; adjuvant 1% w/v,0%
same,mean % damage 1 daa Stellaria media,[7]; adjuvant 1.5% w/v,0%
same,mean % damage 7 daa Stellaria media,[7]; adjuvant 1.5% w/v,5%
same,mean % damage 14 daa Stellaria media,[7]; adjuvant 1.5% w/v,5%
same,mean % damage 1 daa Stellaria media,[7]; adjuvant 2% w/v,0%
same,mean % damage 7 daa Stellaria media,[7]; adjuvant 2% w/v,10%
same,mean % damage 14 daa Stellaria media,[7]; adjuvant 2% w/v,5%
same,mean % damage 1 daa Stellaria media,[7]; adjuvant 2.5% w/v,0%
same,mean % damage 7 daa Stellaria media,[7]; adjuvant 2.5% w/v,10%
same,mean % damage 14 daa Stellaria media,[7]; adjuvant 2.5% w/v,10%
same,mean % damage 1 daa Trifolium repens,[8]; adjuvant 1% w/v,0%
same,mean % damage 7 daa Trifolium repens,[8]; adjuvant 1% w/v,5%
same,mean % damage 14 daa Trifolium repens,[8]; adjuvant 1% w/v,0%
same,mean % damage 1 daa Trifolium repens,[8]; adjuvant 1.5% w/v,0%
same,mean % damage 7 daa Trifolium repens,[8]; adjuvant 1.5% w/v,5%
same,mean % damage 14 daa Trifolium repens,[8]; adjuvant 1.5% w/v,0%
same,mean % damage 1 daa Trifolium repens,[8]; adjuvant 2% w/v,0%
same,mean % damage 7 daa Trifolium repens,[8]; adjuvant 2% w/v,5%
same,mean % damage 14 daa Trifolium repens,[8]; adjuvant 2% w/v,0%
same,mean % damage 1 daa Trifolium repens,[8]; adjuvant 2.5% w/v,0%
same,mean % damage 7 daa Trifolium repens,[8]; adjuvant 2.5% w/v,5%
same,mean % damage 14 daa Trifolium repens,[8]; adjuvant 2.5% w/v,0%
Iso-tridecyl alcohol polyglycol ether with 15 Moles of ethoxylation [GenapolX-150],visual symptoms of phytotoxicity,[9],comparatively high level of visual symptoms of phytoxicity
same,avg % damage 1 DAA Poa annua,[2]; adjuvant 1.25% w/v,0%
same,avg % damage 6 DAA Poa annua,[2]; adjuvant 1.25% w/v,10%
same,avg % damage 1 DAA Poa annua,[2]; adjuvant 2.5% w/v,0%
same,avg % damage 6 DAA Poa annua,[2]; adjuvant 2.5% w/v,5%
same,avg % damage 1 DAA Poa annua,[2]; adjuvant 5% w/v,0%
same,avg % damage 6 DAA Poa annua,[2]; adjuvant 5% w/v,10%
same,avg % damage 1 DAA Poa annua,[2]; adjuvant 10% w/v,0%
same,avg % damage 6 DAA Poa annua,[2]; adjuvant 10% w/v,10%
same,avg % damage 1 DAA Stellaria media,[3]; adjuvant 1.25% w/v,0%
same,avg % damage 6 DAA Stellaria media,[3]; adjuvant 1.25% w/v,10%
same,avg % damage 1 DAA Stellaria media,[3]; adjuvant 2.5% w/v,0%
same,avg % damage 6 DAA Stellaria media,[3]; adjuvant 2.5% w/v,10%
same,avg % damage 1 DAA Stellaria media,[3]; adjuvant 5% w/v,15%
same,avg % damage 6 DAA Stellaria media,[3]; adjuvant 5% w/v,15%
same,avg % damage 1 DAA Stellaria media,[3]; adjuvant 10% w/v,25%
same,avg % damage 6 DAA Stellaria media,[3]; adjuvant 10% w/v,25%
same,avg % damage 1 DAA Taraxacum officinale,[4]; adjuvant 1.25% w/v,10%
same,avg % damage 6 DAA Taraxacum officinale,[4]; adjuvant 1.25% w/v,5%
same,avg % damage 1 DAA Taraxacum officinale,[4]; adjuvant 2.5% w/v,10%
same,avg % damage 6 DAA Taraxacum officinale,[4]; adjuvant 2.5% w/v,0%
same,avg % damage 1 DAA Taraxacum officinale,[4]; adjuvant 5% w/v,20%
same,avg % damage 6 DAA Taraxacum officinale,[4]; adjuvant 5% w/v,10%
same,avg % damage 1 DAA Taraxacum officinale,[4]; adjuvant 10% w/v,10%
same,avg % damage 6 DAA Taraxacum officinale,[4]; adjuvant 10% w/v,0%
